Measured values reported in patent US9926281B2 (priority 2014, dated 2018).

Experiments:
human TACE = human TACE (Homo sapiens (Human), UniProt P78536); conditions: read-out: TACE potency IC50
human ADAMTS-5 = human ADAMTS-5 (Homo sapiens (Human), UniProt Q9UNA0); conditions: read-out: hADAMTS-5 potency IC50
Chain of human ADAMTS-5 (Q9UNA0 262-930): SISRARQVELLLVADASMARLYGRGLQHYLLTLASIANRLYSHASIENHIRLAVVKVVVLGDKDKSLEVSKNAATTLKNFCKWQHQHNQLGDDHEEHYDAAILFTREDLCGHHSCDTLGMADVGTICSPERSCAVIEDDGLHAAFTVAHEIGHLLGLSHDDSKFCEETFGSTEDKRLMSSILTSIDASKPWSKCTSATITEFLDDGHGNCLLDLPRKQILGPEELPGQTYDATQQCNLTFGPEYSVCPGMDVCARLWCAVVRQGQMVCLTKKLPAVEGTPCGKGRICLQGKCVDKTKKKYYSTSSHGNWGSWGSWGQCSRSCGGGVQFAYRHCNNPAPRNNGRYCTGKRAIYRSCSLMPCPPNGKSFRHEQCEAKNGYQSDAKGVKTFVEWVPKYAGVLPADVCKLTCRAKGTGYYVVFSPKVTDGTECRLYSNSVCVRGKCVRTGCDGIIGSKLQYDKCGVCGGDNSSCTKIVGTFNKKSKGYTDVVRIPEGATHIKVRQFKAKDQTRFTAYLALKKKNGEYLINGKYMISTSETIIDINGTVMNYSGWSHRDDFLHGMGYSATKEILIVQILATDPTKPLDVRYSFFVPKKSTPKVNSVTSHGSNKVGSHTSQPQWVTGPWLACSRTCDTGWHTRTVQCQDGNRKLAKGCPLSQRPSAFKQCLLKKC
Method: Finally, the fluorescence is read on the Envision (Perkin Elmer) after an incubation of 90 min at 37° C.

Chain of human TACE (P78536 whole entry, looked up, change not shown): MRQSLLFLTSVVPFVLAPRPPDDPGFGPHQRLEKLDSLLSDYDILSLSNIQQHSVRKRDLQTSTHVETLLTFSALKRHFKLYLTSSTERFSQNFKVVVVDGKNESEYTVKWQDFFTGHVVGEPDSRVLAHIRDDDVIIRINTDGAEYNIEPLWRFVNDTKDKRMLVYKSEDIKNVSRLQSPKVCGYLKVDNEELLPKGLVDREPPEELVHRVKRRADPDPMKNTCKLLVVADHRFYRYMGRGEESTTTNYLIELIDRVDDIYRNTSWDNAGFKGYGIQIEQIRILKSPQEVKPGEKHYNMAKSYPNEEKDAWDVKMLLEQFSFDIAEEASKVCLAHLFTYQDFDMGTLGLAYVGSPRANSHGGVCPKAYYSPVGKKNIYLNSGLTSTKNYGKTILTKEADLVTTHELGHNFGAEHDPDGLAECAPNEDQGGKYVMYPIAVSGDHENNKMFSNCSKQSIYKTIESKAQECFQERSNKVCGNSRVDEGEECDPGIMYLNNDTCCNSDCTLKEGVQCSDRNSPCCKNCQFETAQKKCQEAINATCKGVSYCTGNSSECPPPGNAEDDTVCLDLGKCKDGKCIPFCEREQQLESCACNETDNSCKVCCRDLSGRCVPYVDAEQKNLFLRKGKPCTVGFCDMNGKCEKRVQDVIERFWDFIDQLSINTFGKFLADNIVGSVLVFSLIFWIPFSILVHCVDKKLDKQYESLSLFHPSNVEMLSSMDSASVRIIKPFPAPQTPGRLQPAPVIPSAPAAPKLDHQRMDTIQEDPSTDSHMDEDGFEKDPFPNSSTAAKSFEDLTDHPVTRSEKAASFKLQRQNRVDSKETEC

Compound: C[C@H]1CN(C(=O)CCC2(C3CC3)NC(=O)NC2=O)CCN1c1ccnc(Cl)n1 (stereo partly drawn) [compound 301, 5-[3-[(3S)-4-(2-chloropyrimidin-4-yl)-3-methyl-piperazin-1-yl]-3-oxo-propyl]-5-cyclopropyl-imidazolidine-2,4-dione]
- IC50 (human TACE): > 20 µM
- IC50 (human ADAMTS-5): > 20 µM

Compound: Cc1cncc(N2CCN(C(=O)CCC3(C4CC4)NC(=O)NC3=O)C[C@@H]2C)c1 (stereo partly drawn) [compound 303, 5-cyclopropyl-5-[3-[(3S)-3-methyl-4-(5-methyl-3-pyridyl)piperazin-1-yl]-3-oxo-propyl]imidazolidine-2,4-dione]
- IC50 (human TACE): > 20 µM
- IC50 (human ADAMTS-5): 0.266 µM

Compound: C[C@H]1CN(C(=O)CCC2(C3CC3)NC(=O)NC2=O)CCN1c1cncnc1 (stereo partly drawn) [compound 304, 5-cyclopropyl-5-[3-[(3S)-3-methyl-4-pyrimidin-5-yl-piperazin-1-yl]-3-oxo-propyl]imidazolidine-2,4-dione]
- IC50 (human TACE): > 20 µM
- IC50 (human ADAMTS-5): > 4 µM

Compound: Cc1ccc(N2CCN(C(=O)CCC3(C4CC4)NC(=O)NC3=O)C[C@@H]2C)cc1Cl (stereo partly drawn) [compound 306, 5-[3-[(3S)-4-(3-chloro-4-methyl-phenyl)-3-methyl-piperazin-1-yl]-3-oxo-propyl]-5-cyclopropyl-imidazolidine-2,4-dione]
- IC50 (human TACE): > 4 µM
- IC50 (human ADAMTS-5): 0.067 µM

Compound: Cc1cccc(C2(CCC(=O)N3CCN(c4cc(Cl)cc(Cl)c4)[C@@H](C)C3)NC(=O)NC2=O)n1 (stereo partly drawn) [compound 310, 5-[3-[(3S)-4-(3,5-dichlorophenyl)-3-methyl-piperazin-1-yl]-3-oxo-propyl]-5-(6-methyl-2-pyridyl)imidazolidine-2,4-dione]
- IC50 (human TACE): 1.32 µM
- IC50 (human ADAMTS-5): 0.05 µM

Compound: Cc1cccc(C2(CCC(=O)N3CCN(c4cccc(Cl)c4)[C@@H](C)C3)NC(=O)NC2=O)n1 (stereo partly drawn) [compound 311, 5-[3-[(3S)-4-(3-chlorophenyl)-3-methyl-piperazin-1-yl]-3-oxo-propyl]-5-(6-methyl-2-pyridyl)imidazolidine-2,4-dione]
- IC50 (human TACE): 3.07 µM
- IC50 (human ADAMTS-5): 0.057 µM

Compound: Cc1cccc(C2(CCC(=O)N3CCN(c4ccc(Cl)cc4)[C@@H](C)C3)NC(=O)NC2=O)n1 (stereo partly drawn) [compound 312, 5-[3-[(3S)-4-(4-chlorophenyl)-3-methyl-piperazin-1-yl]-3-oxo-propyl]-5-(6-methyl-2-pyridyl)imidazolidine-2,4-dione]
- IC50 (human TACE): 3.68 µM
- IC50 (human ADAMTS-5): 0.04 µM

Compound: C[C@H]1CN(C(=O)CCC2(c3cccnc3)NC(=O)NC2=O)CCN1c1ccc(Cl)c(F)c1 (stereo partly drawn) [compound 315, 5-[3-[(3S)-4-(4-chloro-3-fluoro-phenyl)-3-methyl-piperazin-1-yl]-3-oxo-propyl]-5-(3-pyridyl)imidazolidine-2,4-dione]
- IC50 (human TACE): > 4 µM
- IC50 (human ADAMTS-5): 0.042 µM

Compound: C[C@H]1CN(C(=O)CCC2(c3cccnc3)NC(=O)NC2=O)CCN1c1cc(Cl)cc(Cl)c1 (stereo partly drawn) [compound 318, 5-[3-[(3S)-4-(3,5-dichlorophenyl)-3-methyl-piperazin-1-yl]-3-oxo-propyl]-5-(3-pyridyl)imidazolidine-2,4-dione]
- IC50 (human TACE): 2.19 µM
- IC50 (human ADAMTS-5): 0.059 µM

Compound: C[C@H]1CN(C(=O)CCC2(C3CC3)NC(=O)NC2=O)CCN1c1cccc(-c2cncc(Cl)c2)c1 (stereo partly drawn) [compound 322, 5-[3-[(3S)-4-[3-(5-chloro-3-pyridyl)phenyl]-3-methyl-piperazin-1-yl]-3-oxo-propyl]-5-cyclopropyl-imidazolidine-2,4-dione]
- IC50 (human TACE): > 4 µM
- IC50 (human ADAMTS-5): 0.237 µM

Compound: Cc1ncccc1-c1cccc(N2CCN(C(=O)CCC3(C4CC4)NC(=O)NC3=O)C[C@@H]2C)c1 (stereo partly drawn) [compound 323, 5-cyclopropyl-5-[3-[(3S)-3-methyl-4-[3-(2-methyl-3-pyridyl)phenyl]piperazin-1-yl]-3-oxo-propyl]imidazolidine-2,4-dione]
- IC50 (human TACE): > 4 µM
- IC50 (human ADAMTS-5): 1.24 µM

Compound: Cc1ccc(-c2cccc(N3CCN(C(=O)CCC4(C5CC5)NC(=O)NC4=O)C[C@@H]3C)c2)cn1 (stereo partly drawn) [compound 324, 5-cyclopropyl-5-[3-[(3S)-3-methyl-4-[3-(6-methyl-3-pyridyl)phenyl]piperazin-1-yl]-3-oxo-propyl]imidazolidine-2,4-dione]
- IC50 (human TACE): > 4 µM
- IC50 (human ADAMTS-5): 0.407 µM

Compound: C[C@H]1CN(C(=O)CCC2(C3CC3)NC(=O)NC2=O)CCN1c1cc(Cl)ccn1 (stereo partly drawn) [compound 325, 5-[3-[(3S)-4-(4-chloro-2-pyridyl)-3-methyl-piperazin-1-yl]-3-oxo-propyl]-5-cyclopropyl-imidazolidine-2,4-dione]
- IC50 (human TACE): > 20 µM
- IC50 (human ADAMTS-5): 0.796 µM

Compound: C[C@H]1CN(C(=O)CCC2(C3CC3)NC(=O)NC2=O)CCN1c1cccc2c1ccn2C (stereo partly drawn) [compound 328, 5-cyclopropyl-5-[3-[(3S)-3-methyl-4-(1-methylindol-4-yl)piperazin-1-yl]-3-oxo-propyl]imidazolidine-2,4-dione]
- IC50 (human TACE): > 20 µM
- IC50 (human ADAMTS-5): > 4 µM

Compound: Cc1cc(-c2cccc(N3CCN(C(=O)CCC4(C5CC5)NC(=O)NC4=O)C[C@@H]3C)c2)ccn1 (stereo partly drawn) [compound 329, 5-cyclopropyl-5-[3-[(3S)-3-methyl-4-[3-(2-methyl-4-pyridyl)phenyl]piperazin-1-yl]-3-oxo-propyl]imidazolidine-2,4-dione]
- IC50 (human TACE): > 20 µM
- IC50 (human ADAMTS-5): 0.134 µM

Compound: C[C@H]1CN(C(=O)CCC2(C3CC3)NC(=O)NC2=O)CCN1c1cncc(C#N)c1 (stereo partly drawn) [compound 330, 5-[(2S)-4-[3-(4-cyclopropyl-2,5-dioxo-imidazolidin-4-yl)propanoyl]-2-methyl-piperazin-1-yl]pyridine-3-carbonitrile]
- IC50 (human TACE): > 20 µM
- IC50 (human ADAMTS-5): > 4 µM

Compound: C[C@H]1CN(C(=O)CCC2(C3CC3)NC(=O)NC2=O)CCN1c1cc(F)cc(C#N)c1 (stereo partly drawn) [compound 334, 3-[(2S)-4-[3-(4-cyclopropyl-2,5-dioxo-imidazolidin-4-yl)propanoyl]-2-methyl-piperazin-1-yl]-5-fluoro-benzonitrile]
- IC50 (human TACE): > 20 µM
- IC50 (human ADAMTS-5): 0.43 µM

Compound: COc1cccc(C2(CCC(=O)N3CCN(c4cc(F)cc(F)c4)[C@@H](C)C3)NC(=O)NC2=O)n1 (stereo partly drawn) [compound 336, 5-[3-[(3S)-4-(3,5-difluorophenyl)-3-methyl-piperazin-1-yl]-3-oxo-propyl]-5-(6-methoxy-2-pyridyl)imidazolidine-2,4-dione]
- IC50 (human TACE): > 4 µM
- IC50 (human ADAMTS-5): 0.074 µM

Compound: C[C@H]1CN(C(=O)CCC2(C3CC3)NC(=O)NC2=O)CCN1c1cnc2ccn(C)c2c1 (stereo partly drawn) [compound 337, 5-cyclopropyl-5-[3-[(3S)-3-methyl-4-(1-methylpyrrolo[3,2-b]pyridin-6-yl)piperazin-1-yl]-3-oxo-propyl]imidazolidine-2,4-dione]
- IC50 (human TACE): > 20 µM
- IC50 (human ADAMTS-5): 0.764 µM

Compound: C[C@H]1CN(C(=O)CCC2(C3CC3)NC(=O)NC2=O)CCN1c1cc(F)cc(-c2cn[nH]c2)c1 (stereo partly drawn) [compound 338, 5-cyclopropyl-5-[3-[(3S)-4-[3-fluoro-5-(1H-pyrazol-4-yl)phenyl]-3-methyl-piperazin-1-yl]-3-oxo-propyl]imidazolidine-2,4-dione]
- IC50 (human TACE): > 4 µM
- IC50 (human ADAMTS-5): 0.06 µM

Compound: C[C@H]1CN(C(=O)CCC2(C3CC3)NC(=O)NC2=O)CCN1c1ccc(F)c(-c2cn[nH]c2)c1 (stereo partly drawn) [compound 340, 5-cyclopropyl-5-[3-[(3S)-4-[4-fluoro-3-(1H-pyrazol-4-yl)phenyl]-3-methyl-piperazin-1-yl]-3-oxo-propyl]imidazolidine-2,4-dione]
- IC50 (human TACE): > 4 µM
- IC50 (human ADAMTS-5): 0.155 µM

Compound: C[C@H]1CN(C(=O)CCC2(C3CC3)NC(=O)NC2=O)CCN1c1ccc2cnn(C)c2c1 (stereo partly drawn) [compound 341, 5-cyclopropyl-5-[3-[(3S)-3-methyl-4-(1-methylindazol-6-yl)piperazin-1-yl]-3-oxo-propyl]imidazolidine-2,4-dione]
- IC50 (human TACE): 0.885 µM
- IC50 (human ADAMTS-5): 0.264 µM

Compound: CC(CC1(C2CC2)NC(=O)NC1=O)C(=O)N1CCN(c2ccc(F)cc2)[C@@H](C)C1 (stereo partly drawn) [compound 343, 5-cyclopropyl-5-[3-[(3S)-4-(4-fluorophenyl)-3-methyl-piperazin-1-yl]-2-methyl-3-oxo-propyl]imidazolidine-2,4-dione]
- IC50 (human TACE): > 20 µM
- IC50 (human ADAMTS-5): 0.022 µM

Compound: Cc1nc(N2CCN(C(=O)CCC3(C4CC4)NC(=O)NC3=O)C[C@@H]2C)no1 (stereo partly drawn) [compound 344, 5-cyclopropyl-5-[3-[(3S)-3-methyl-4-(5-methyl-1,2,4-oxadiazol-3-yl)piperazin-1-yl]-3-oxo-propyl]imidazolidine-2,4-dione]
- IC50 (human TACE): > 20 µM
- IC50 (human ADAMTS-5): > 20 µM

Compound: C[C@H]1CN(C(=O)CCC2(c3ccccn3)NC(=O)NC2=O)CCN1c1cccc(F)c1 (stereo partly drawn) [compound 345, 5-[3-[(3S)-4-(3-fluorophenyl)-3-methyl-piperazin-1-yl]-3-oxo-propyl]-5-(2-pyridyl)imidazolidine-2,4-dione]
- IC50 (human TACE): > 4 µM
- IC50 (human ADAMTS-5): 0.05 µM

Compound: C[C@H]1CN(C(=O)CCC2(c3ccccn3)NC(=O)NC2=O)CCN1c1ccc(Cl)c(Cl)c1 (stereo partly drawn) [compound 347, 5-[3-[(3S)-4-(3,4-dichlorophenyl)-3-methyl-piperazin-1-yl]-3-oxo-propyl]-5-(2-pyridyl)imidazolidine-2,4-dione]
- IC50 (human TACE): 2.38 µM
- IC50 (human ADAMTS-5): 0.021 µM

Compound: C[C@H]1CN(C(=O)CCC2(c3ccccn3)NC(=O)NC2=O)CCN1c1cc(F)cc(F)c1 (stereo partly drawn) [compound 348, 5-[3-[(3S)-4-(3,5-difluorophenyl)-3-methyl-piperazin-1-yl]-3-oxo-propyl]-5-(2-pyridyl)imidazolidine-2,4-dione]
- IC50 (human TACE): > 4 µM
- IC50 (human ADAMTS-5): 0.034 µM

Compound: C[C@H]1CN(C(=O)CCC2(c3cnccn3)NC(=O)NC2=O)CCN1c1ccc(F)c(Cl)c1 (stereo partly drawn) [compound 349, 5-[3-[(3S)-4-(3-chloro-4-fluoro-phenyl)-3-methyl-piperazin-1-yl]-3-oxo-propyl]-5-pyrazin-2-yl-imidazolidine-2,4-dione]
- IC50 (human TACE): > 4 µM
- IC50 (human ADAMTS-5): 0.062 µM

Compound: Cc1noc(N2CCN(C(=O)CCC3(C4CC4)NC(=O)NC3=O)C[C@@H]2C)n1 (stereo partly drawn) [compound 352, 5-cyclopropyl-5-[3-[(3S)-3-methyl-4-(3-methyl-1,2,4-oxadiazol-5-yl)piperazin-1-yl]-3-oxo-propyl]imidazolidine-2,4-dione]
- IC50 (human TACE): > 20 µM
- IC50 (human ADAMTS-5): > 20 µM

Compound: Cc1nc(C2(CCC(=O)N3CCN(c4cc(F)cc(F)c4)[C@@H](C)C3)NC(=O)NC2=O)c[nH]1 (stereo partly drawn) [compound 354, 5-[3-[(3S)-4-(3,5-difluorophenyl)-3-methyl-piperazin-1-yl]-3-oxo-propyl]-5-(2-methyl-1H-imidazol-4-yl)imidazolidine-2,4-dione]
- IC50 (human TACE): > 20 µM
- IC50 (human ADAMTS-5): > 20 µM
